Here are results for 78 compounds from patent US9994554B2, “Barbiturate and thiobarbiturate compounds for use in cancer therapy” (NUHOPE, LLC, priority 2011, dated 2018).

Bounds are passed on as bounds.

The subject of the test is U87-MG cells. Kind of test: U87-MG resazurin cell assay (Example 13). The format is cell-based. The note with it: Homo sapiens, U-87 MG; U87-MG, 5 days (120 hrs) incubation; read-out: Activity Score (Mean pXC50) (converted). The procedure: U87-MG cells were obtained from the ATCC, LGC Standards (#HTB-14). The cells were screened for mycoplasma (Mycoplasma Experience) and maintained in Biowhittaker Alpha MEM (Lonza #BE02-002F+10% dialyzed US FBS serum (Invitrogen #26400-044), 1% Penstrep (Gibco #15140-122).
Compounds to be tested were transferred into column 1 of a hit plate (96-well PPV Greiner #651201). 20 ul of DMSO was added to columns 2 to 11. The top concentration was 10 mM.
Serial dilution, ten-point one in three dilution curves were created using Perkin Elmer Janus (20 ul clear Robopack disposable tips #6000677 used).
2 ul of each of the compounds was transferred by pre-dispensing into black, clear bottom 96-well CellBIND Corning plates (Fisher #DPS-184-030R) using Platemate 2×2 (ThermoFisher Darts #5506).
200 μl of U87-MG cells were added to columns 1 to 11 at a density of 1000 cells per ml, and media only was dispensed into control column 12 using Wellmate (Small bore tubing set #201-30002).
After 5 days (120 hrs) incubation at 37° C. under 5% CO2 in a humidified incubator, the assay was “stopped” by addition of Resazurin sodium salt at 0.5 mM final concentration (Sigma R7017). The plates were incubated for a further 4 hrs before resorufin readout was taken from a Perkin Elmer EnVision, 550 nm excitation (photo550, Barcode 312), 580 nm emission (M580, Barcode 233), Top Mirror BODIPY (D555, Barcode 405).
(In general: The colour change of resazurin is a common sign of viable cells or microbes.)
Regarding `CCN1C(=O)C(=C/C=C/c2c(F)cccc2F)C(=O)N(CC)C1=S` [DDD00197345], the IC50 was 31.6 to 100 µM.

For `O=C1NC(=O)C(=C/C=C/c2cccc(F)c2)C(=O)N1` [DDD00197332], the IC50 is 1 to 10 µM.

For the compound `COc1ccccc1/C=C/C=C1C(=O)N(C)C(=O)N(C)C1=O` [DDD00175818], the IC50 is 1 to 10 µM.

For `COc1ccc(C=C2C(=O)NC(=O)NC2=O)cc1` [DDD00175838], the IC50 is greater than 100 µM.

As to `O=C1NC(=O)C(=CC2=Cc3ccccc3OC2)C(=O)N1` [DDD00175835], the IC50 was 31.6 to 100 µM.

Take `CCN1C(=O)C(=C/C=C/c2ccccc2OC)C(=O)N(CC)C1=S` [DDD00197350]: the IC50 was 10 to 31.6 µM.

As to `Cc1ccccc1/C=C/C=C1C(=O)NC(=O)NC1=O` [DDD00175809], the IC50 is 1 to 10 µM.

`O=C1NC(=O)C(Cc2ccccc2)C(=O)N1` [DDD00175824]: the IC50 is greater than 100 µM.

Take `CCN1C(=O)NC(=O)/C(=C\C=C\c2cccc(N(C)C)c2)C1=O` [DDD00197341]: the IC50 was 1 to 10 µM.

In the case of `CCN1C(=O)C(=C/C=C/c2ccc(F)cc2)C(=O)N(CC)C1=S` [DDD00175839], the IC50 is 31.6 to 100 µM.

Turning to `CCN1C(=O)C(=C/C=C/c2cccc(Cl)c2)C(=O)N(CC)C1=S` [DDD00175293], the IC50 was 31.6 to 100 µM.

Turning to `CN1C(=O)C(=C/C=C/c2cccc(F)c2)C(=O)N(C)C1=O` [DDD00197351], the IC50 is 1 to 10 µM.

On to `O=C1NC(=O)C(=Cc2ccc(Cl)c(Cl)c2)C(=O)N1` [DDD00175836], for which the IC50 is greater than 100 µM.

In the case of `O=C1NC(=O)C(=Cc2cccc(F)c2)C(=O)N1` [DDD00175822], the IC50 was greater than 100 µM.

Consider `CCN1C(=O)/C(=C/C=C/c2cccc(F)c2)C(=O)NC1=S` [DDD00197354], for which the IC50 was 10 to 31.6 µM.

Turning to `Cc1ccc(/C=C/C=C2C(=O)NC(=S)NC2=O)cc1` [DDD00175798], the IC50 was 1 to 10 µM.

`CN1C(=O)C(=C/C=C/c2ccccc2F)C(=O)N(C)C1=O` [DDD00175811]: the IC50 was 1 to 10 µM.

In the case of `O=C1NC(=O)C(=Cc2ccccc2F)C(=O)N1` [DDD00175821], the IC50 is greater than 100 µM.

Consider `Cn1cc(/C=C/c2ccccc2)c(=O)n(C)c1=O` [DDD00197671], for which the IC50 was greater than 100 µM.

Take `CCN1C(=O)NC(=O)/C(=C\C=C\c2ccccc2C)C1=O` [DDD00175813]: the IC50 was 1 to 10 µM.

Consider `CCN1C(=O)NC(=O)/C(=C\C=C\c2ccc(N(C)C)cc2)C1=O` [DDD00175804], for which the IC50 was 1 to 10 µM.

In the case of `O=C1NC(=O)C(=Cc2ccccn2)C(=O)N1` [DDD00175837], the IC50 was greater than 100 µM.

With `O=C1NC(=O)C(=CC2CCCCC2)C(=O)N1` [DDD00175825], the IC50 is greater than 100 µM.

For `CCN1C(=O)C(=C/C=C/c2ccc(OC)cc2)C(=O)N(CC)C1=S` [DDD00175800], the IC50 is 31.6 to 100 µM.

Consider `CN1C(=O)C(C(C)(O)/C=C/c2ccccc2)C(=O)N(C)C1=O` (stereo not drawn) [DDD00197352], for which the IC50 is greater than 100 µM.

Turning to `CCN1C(=O)C(=C/C=C/c2ccc(Cl)cc2)C(=O)N(CC)C1=S` [DDD00175281], the IC50 is 31.6 to 100 µM.

With `CN1C(=O)C(=C/C=C/c2cccc(N(C)C)c2)C(=O)N(C)C1=O` [DDD00197346], the IC50 was 1 to 10 µM.

As for `O=C1NC(=S)NC(=O)C1=C/C=C/c1ccccc1F` [DDD00197349], the IC50 is 1 to 10 µM.

For the compound `CN1C(=O)C(=C/C=C/c2ccccc2N(C)C)C(=O)N(C)C1=O` [DDD00197338], the IC50 is 1 to 10 µM.

As for `CN1C(=O)C(=C/C=C/c2ccccc2)C(=O)N(C)C1=O` [DDD00175285], the IC50 was 1 to 10 µM.

On to `CCN1C(=O)/C(=C/C=C/c2ccc(F)cc2)C(=O)NC1=S` [DDD00175840], for which the IC50 is 31.6 to 100 µM.

With `O=C1NC(=O)C(=C/C=C/c2ccc(F)cc2)C(=O)N1` [DDD00175842], the IC50 was 1 to 10 µM.

For `CCN1C(=O)NC(=O)/C(=C\C=C\c2cccc(Cl)c2)C1=O` [DDD00175297], the IC50 was no more than 1 µM.

For the compound `COc1ccc(/C=C/C=C2C(=O)N(C)C(=O)N(C)C2=O)cc1` [DDD00175794], the IC50 is 1 to 10 µM.

With `CCN1C(=O)NC(=O)/C(=C\C=C\c2ccccc2OC)C1=O` [DDD00175817], the IC50 was 1 to 10 µM.

`O=C1NC(=O)C(=Cc2ccccc2)C(=O)N1` [DDD00175828]: the IC50 is greater than 100 µM.

`CCN1C(=O)C(=C/C=C/c2ccc(C)cc2)C(=O)N(CC)C1=S` [DDD00175807]: the IC50 was 31.6 to 100 µM.

Consider `CN1C(=O)C(=C/C=C/c2ccc(N(C)C)cc2)C(=O)N(C)C1=O` [DDD00175795], for which the IC50 is 31.6 to 100 µM.

For the compound `CCN1C(=O)/C(=C\C=C\c2ccccc2)C(=O)N(C2CCOCC2)C1=O` [DDD00175789], the IC50 was 1 to 10 µM.

Consider `CN(C)c1ccccc1/C=C/C=C1C(=O)NC(=O)NC1=O` [DDD00197357], for which the IC50 is 1 to 10 µM.

Regarding `CN1C(=O)C(=CC2=Cc3cc(Cl)ccc3OC2)C(=O)N(C)C1=O` [DDD00175830], the IC50 was 31.6 to 100 µM.

With `CCN1C(=O)C(=C/C=C/c2ccc(N(C)C)cc2)C(=O)N(CC)C1=S` [DDD00197342], the IC50 is 31.6 to 100 µM.

On to `O=C1NC(=O)C(=C/C=C/c2cccnc2)C(=O)N1` [DDD00197336], for which the IC50 is 10 to 31.6 µM.

With `COc1ccccc1/C=C/C=C1C(=O)NC(=S)NC1=O` [DDD00175819], the IC50 was 1 to 10 µM.

Take `CCN1C(=O)NC(=O)/C(=C\C=C\c2ccccc2N(C)C)C1=O` [DDD00197344]: the IC50 is 1 to 10 µM.

Take `CCN1C(=O)NC(=O)/C(=C2\C=C(c3ccccc3)CCC2)C1=O` [DDD00175332]: the IC50 was greater than 100 µM.

As for `O=C1NC(=O)C(=C/C=C/c2c(F)cccc2F)C(=O)N1` [DDD00197331], the IC50 was 1 to 10 µM.

For the compound `N#Cc1ccccc1/C=C/C=C1C(=O)NC(=O)NC1=O` [DDD00197348], the IC50 is 1 to 10 µM.

In the case of `CN1C(=O)C(=C/C=C/c2c(F)cccc2F)C(=O)N(C)C1=O` [DDD00197343], the IC50 is 1 to 10 µM.

Turning to `CCN1C(=O)/C(=C/C=C/c2ccccc2C)C(=O)NC1=S` [DDD00197330], the IC50 was 1 to 10 µM.

With `O=C1NC(=O)C(=C/C=C/c2ccccc2F)C(=O)N1` [DDD00175808], the IC50 was 1 to 10 µM.

`N#Cc1ccc(/C=C/C=C2C(=O)NC(=O)NC2=O)cc1` [DDD00175802]: the IC50 is 10 to 31.6 µM.

Take `COc1ccccc1/C=C/C=C1C(=O)NC(=O)NC1=O` [DDD00175832]: the IC50 is 1 to 10 µM.

Regarding `CCN1C(=O)/C(=C/C=C/c2ccccc2OC)C(=O)NC1=S` [DDD00197355], the IC50 is 1 to 10 µM.

`O=C1NC(=O)C(=Cc2cccc(Cl)c2)C(=O)N1` [DDD00175823]: the IC50 is greater than 100 µM.

`COc1ccc2c(c1)OCC(C=C1C(=O)N(C)C(=O)N(C)C1=O)=C2` [DDD00175826]: the IC50 is 31.6 to 100 µM.

As to `CN1C(=O)C(=C/C=C/C2CCCCC2)C(=O)N(C)C1=O` [DDD00197709], the IC50 was 10 to 31.6 µM.

Regarding `O=C1NC(=O)C(=Cc2cccnc2)C(=O)N1` [DDD00175833], the IC50 is greater than 100 µM.

In the case of `CCN1C(=O)NC(=O)/C(=C\C=C\c2ccc(F)cc2)C1=O` [DDD00175841], the IC50 was 1 to 10 µM.

Regarding `O=C1NC(=O)C(=Cc2ccc(F)cc2)C(=O)N1` [DDD00175831], the IC50 was greater than 100 µM.

`CN1C(=O)C(=Cc2ccco2)C(=O)N(C)C1=O` [DDD00175280]: the IC50 is greater than 100 µM.

`CN(C)c1ccc(/C=C/C=C2C(=O)NC(=O)NC2=O)cc1` [DDD00175803]: the IC50 is 10 to 31.6 µM.

Turning to `O=C1NC(=S)NC(=O)C1=C/C=C/c1cccc(F)c1` [DDD00197339], the IC50 is 1 to 10 µM.

As for `N#Cc1ccc(/C=C/C=C2C(=O)NC(=S)NC2=O)cc1` [DDD00175806], the IC50 was 31.6 to 100 µM.

For `COc1ccc(/C=C/C=C2C(=O)NC(=O)NC2=O)cc1` [DDD00175799], the IC50 was 1 to 10 µM.

Consider `O=C1NC(=O)C(=Cc2ccncc2)C(=O)N1` [DDD00175820], for which the IC50 was greater than 100 µM.

Regarding `O=C1NC(=O)C(=C/C=C/c2cccc(Cl)c2)C(=O)N1` [DDD00175302], the IC50 was no more than 1 µM.

With `O=C1NC(=O)C(=C/C=C/c2ccccc2Cl)C(=O)N1` [DDD00175339], the IC50 was 1 to 10 µM.

In the case of `CN1C(=O)C(=Cc2c[nH]c3ccccc23)C(=O)N(C)C1=O` [DDD00175791], the IC50 is greater than 100 µM.

For `CCN1C(=O)NC(=O)/C(=C\C=C\c2ccc(OC)cc2)C1=O` [DDD00175797], the IC50 was 1 to 10 µM.

Take `CCN1C(=O)NC(=O)/C(=C\C=C\c2cccc(F)c2)C1=O` [DDD00197347]: the IC50 was 1 to 10 µM.

As to `CCN1C(=O)C(=C/C=C/c2ccccc2C)C(=O)N(CC)C1=S` [DDD00175816], the IC50 was 10 to 31.6 µM.

With `O=C1NC(=O)C(=C/C=C/c2ccccc2[N+](=O)[O-])C(=O)N1` [DDD00175834], the IC50 was 1 to 10 µM.

As for `CCN1C(=O)NC(=O)/C(=C\C=C\c2ccccc2F)C1=O` [DDD00175810], the IC50 is 1 to 10 µM.

Consider `CN(C)c1ccccc1/C=C/C=C1C(=O)NC(=S)NC1=O` [DDD00197337], for which the IC50 was 10 to 31.6 µM.

Take `Cc1ccc(/C=C/C=C2C(=O)NC(=O)NC2=O)cc1` [DDD00175796]: the IC50 is 1 to 10 µM.

For the compound `O=C1NC(=O)C(=C/C=C/c2ccc(Cl)cc2Cl)C(=O)N1` [DDD00175271], the IC50 was 1 to 10 µM.

As to `CCN1C(=O)C(=C2C=C(c3ccccc3)CCC2)C(=O)N(CC)C1=S` [DDD00175338], the IC50 is greater than 100 µM.
